“And” between values parts separate entries of the source, which are not always exact repeats. Equal values may be shown once. Toxic doses and inconclusive results are not listed. No stated cut-off is given here; in the data, active means T/C of 150% or more; inactive means T/C below 125%.
Test system: L1210 leukemia ip in BDF1 mice, survival T/C
Assay: NCI In Vivo Anticancer Drug Screen. Data for tumor model L1210 Leukemia (intraperitoneal) in B6D2F1 (BDF1) mice
Conditions: endpoint: mean survival time, higher = longer survival
How it was run: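 Tumor was transplanted into mice, which were then dosed with test compound or vehicle alone. Survival was recorded for each group, and the treated figure was expressed relative to the control figure.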

[1] = dose: 100.0 mg/kg/injection, schedule: Q01DX009 (ip), vehicle: Klucel (hydroxypropylcellulose) (HPC)
[2] = dose: 200.0 mg/kg/injection, schedule: Q01DX009 (ip), vehicle: Klucel (hydroxypropylcellulose) (HPC)
[3] = dose: 400.0 mg/kg/injection, schedule: Q01DX009 (ip), vehicle: Klucel (hydroxypropylcellulose) (HPC)
[4] = dose: 25.0 mg/kg/injection, schedule: Q04DX003 (ip), vehicle: saline
[5] = dose: 50.0 mg/kg/injection, schedule: Q01DX009 (ip), vehicle: saline
[6] = dose: 50.0 mg/kg/injection, schedule: Q04DX003 (ip), vehicle: saline
[7] = dose: 100.0 mg/kg/injection, schedule: Q04DX003 (ip), vehicle: saline
[8] = dose: 100.0 mg/kg/injection, schedule: Q01DX001 (ip), vehicle: saline
[9] = dose: 200.0 mg/kg/injection, schedule: Q01DX001 (ip), vehicle: saline
[10] = dose: 200.0 mg/kg/injection, schedule: Q04DX003 (ip), vehicle: saline
[11] = dose: 100.0 mg/kg/injection, schedule: Q01DX001 (ip), vehicle: carboxymethylcellulose (CMC)
[12] = dose: 100.0 mg/kg/injection, schedule: Q04DX003 (ip), vehicle: Klucel (hydroxypropylcellulose) (HPC)
[13] = dose: 200.0 mg/kg/injection, schedule: Q01DX001 (ip), vehicle: carboxymethylcellulose (CMC)
[14] = dose: 200.0 mg/kg/injection, schedule: Q04DX003 (ip), vehicle: Klucel (hydroxypropylcellulose) (HPC)
[15] = dose: 400.0 mg/kg/injection, schedule: Q01DX001 (ip), vehicle: carboxymethylcellulose (CMC)
[16] = dose: 50.0 mg/kg/injection, schedule: Q01DX009 (ip), vehicle: Klucel (hydroxypropylcellulose) (HPC)
[17] = dose: 400.0 mg/kg/injection, schedule: Q01DX001 (ip), vehicle: saline
[18] = dose: 400.0 mg/kg/injection, schedule: Q04DX003 (ip), vehicle: Klucel (hydroxypropylcellulose) (HPC)
[19] = dose: 50.0 mg/kg/injection, schedule: Q01DX001 (ip), vehicle: saline
[20] = dose: 25.0 mg/kg/injection, schedule: Q01DX009 (ip), vehicle: saline with Tween-80
[21] = dose: 100.0 mg/kg/injection, schedule: Q04DX003 (ip), vehicle: saline with Tween-80
[22] = dose: 200.0 mg/kg/injection, schedule: Q04DX003 (ip), vehicle: saline with Tween-80

Measured: T/C

O=C(Nc1ccc(N=Nc2ccccc2)cc1)C1CC1
inactive: [1] 101 % of control | [2] 100 % of control | [3] 94 % of control

CCCCCCCC/C=C\CCCCCCCC(=O)N1CC[N+](C)(C)CC1
inactive: dose: 5.0 mg/kg/injection, schedule: Q01DX001 (ip), vehicle: saline 96 % of control | dose: 10.0 mg/kg/injection, schedule: Q01DX001 (ip), vehicle: saline 104 % of control | dose: 20.0 mg/kg/injection, schedule: Q01DX001 (ip), vehicle: saline 93 % of control | dose: 40.0 mg/kg/injection, schedule: Q01DX001 (ip), vehicle: saline 93 % of control

NC(=S)N/N=C(\c1ccc(Br)cc1)C1CC1
inactive: dose: 2.0 mg/kg/injection, schedule: Q01DX Z (ip), vehicle: carboxymethylcellulose (CMC) 105 % of control | dose: 4.0 mg/kg/injection, schedule: Q01DX Z (ip), vehicle: carboxymethylcellulose (CMC) 102 % of control | dose: 4.0 mg/kg/injection, schedule: Q01DX Z (oral), vehicle: carboxymethylcellulose (CMC) 115 % of control | dose: 8.0 mg/kg/injection, schedule: Q01DX Z (ip), vehicle: carboxymethylcellulose (CMC) 113 % of control | dose: 8.0 mg/kg/injection, schedule: Q01DX Z (oral), vehicle: carboxymethylcellulose (CMC) 115 % of control | dose: 16.0 mg/kg/injection, schedule: Q01DX Z (oral), vehicle: carboxymethylcellulose (CMC) 107 % of control

COc1ccc(C(=O)NC[n+]2ccccc2)cc1
inactive: dose: 25.0 mg/kg/injection, schedule: Q01DX009 (ip), vehicle: saline 93 % of control | [4] 86 % of control | [5] 98 % of control | [6] 93 % of control | [7] 99 % of control

CN=C1CN(O)C(c2ccccc2)=c2cc(Cl)ccc2=N1
inactive: dose: 25.0 mg/kg/injection, schedule: Q01DX009 (ip), vehicle: acetone 96 % of control | [4] 97 % of control | dose: 50.0 mg/kg/injection, schedule: Q01DX009 (ip), vehicle: acetone 90 % of control | [6] 97 % of control | [8] 92 % of control | dose: 100.0 mg/kg/injection, schedule: Q01DX009 (ip), vehicle: acetone 102 % of control | [7] 92 % of control | [9] 96 % of control | dose: 200.0 mg/kg/injection, schedule: Q01DX009 (ip), vehicle: acetone 97 % of control | [10] 97 % of control

CCc1ccc(N=Nc2ccc(N(C)C)cc2)cc1
inactive: dose: 50.0 mg/kg/injection, schedule: Q04DX003 (ip), vehicle: Klucel (hydroxypropylcellulose) (HPC) 93 % of control | [11] 110 % of control | [12] 96 % of control | [13] 89 % of control | [14] 96 % of control | [15] 101 % of control

O=C(NCc1ccco1)c1cccc(F)c1
inactive: dose: 25.0 mg/kg/injection, schedule: Q01DX009 (ip), vehicle: Klucel (hydroxypropylcellulose) (HPC) 93 % of control | [16] 95 % of control | [1] 104 % of control and 109 % of control

NS(=O)(=O)c1cc2c(cc1Cl)NC(CC1CCCC1)NS2(=O)=O (centres undefined)
inactive: [8] 105 % of control | [9] 100 % of control | [17] 107 % of control

CNc1ccc(Cl)cc1-c1nc2ccccc2[nH]1
inactive: [16] 109 % of control | [1] 102 % of control | [2] 102 % of control

CCCCCCCC(=O)C(C)C
inactive: [1] 95 % of control | [12] 99 % of control | [2] 98 % of control | [14] 100 % of control | [3] 102 % of control | [18] 91 % of control

N#CCC(O)(c1ccccc1)c1ccccc1
inactive: [19] 102 % of control | [8] 98 % of control | [9] 98 % of control | [17] 104 % of control

Cc1c(NC(=O)Nc2ccc(F)c([N+](=O)[O-])c2)c(=O)n(-c2ccccc2)n1C
inactive: [1] 102 % of control | [2] 96 % of control | [3] 103 % of control

O=C(Nc1ccc(F)c([N+](=O)[O-])c1)Oc1cccnc1
inactive: [20] 97 % of control and 99 % of control | dose: 50.0 mg/kg/injection, schedule: Q01DX009 (ip), vehicle: saline with Tween-80 95 % of control and 96 % of control | dose: 100.0 mg/kg/injection, schedule: Q01DX001 (ip), vehicle: saline with Tween-80 108 % of control | dose: 100.0 mg/kg/injection, schedule: Q04DX002 (ip), vehicle: saline with Tween-80 95 % of control and 100 % of control | [21] 97 % of control | dose: 200.0 mg/kg/injection, schedule: Q01DX001 (ip), vehicle: saline with Tween-80 109 % of control | dose: 200.0 mg/kg/injection, schedule: Q04DX002 (ip), vehicle: saline with Tween-80 104 % of control and 109 % of control | [22] 100 % of control | dose: 400.0 mg/kg/injection, schedule: Q04DX002 (ip), vehicle: saline with Tween-80 102 % of control and 103 % of control

Cn1c2ccccc2c(=O)c2ccccc21
inactive: [8] 117 % of control | [9] 101 % of control | [17] 101 % of control

CCCCc1ccc2nc3cc4ccccc4cc3nc2c1
inactive: [19] 95 % of control | [8] 98 % of control | [9] 93 % of control | [17] 110 % of control

CN(C)c1ccc(C=O)cc1[N+](=O)[O-]
inactive: [16] 94 % of control | [1] 97 % of control | [12] 97 % of control | [2] 100 % of control | [14] 92 % of control | [18] 100 % of control

Nc1cc(S(=O)(=O)O)cc2cc(S(=O)(=O)O)cc(O)c12
inactive: dose: 50.0 mg/kg/injection, schedule: Q04DX002 (ip), vehicle: saline 92 % of control | dose: 100.0 mg/kg/injection, schedule: Q04DX002 (ip), vehicle: saline 100 % of control and 118 % of control | dose: 200.0 mg/kg/injection, schedule: Q04DX002 (ip), vehicle: saline 92 % of control | dose: 400.0 mg/kg/injection, schedule: Q04DX002 (ip), vehicle: saline 122 % of control and 92 % of control

CCC(=O)C(C)C(=O)Nc1ccccc1 (centres undefined)
inactive: [11] 102 % of control | [13] 94 % of control | [15] 100 % of control

COc1ccc(COC2C(CO)OC(n3ccc(N)nc3=O)C2O)cc1 (centres undefined)
inactive: dose: 100.0 mg/kg/injection, schedule: Q01DX005 (ip), vehicle: saline 100 % of control | dose: 200.0 mg/kg/injection, schedule: Q01DX005 (ip), vehicle: saline 94 % of control

c1ccc2sc(SCCSc3nc4ccccc4s3)nc2c1
inactive: dose: 6.25 mg/kg/injection, schedule: Q01DX009 (ip), vehicle: saline with Tween-80 93 % of control | dose: 6.25 mg/kg/injection, schedule: Q04DX002 (ip), vehicle: saline with Tween-80 100 % of control | dose: 12.5 mg/kg/injection, schedule: Q01DX009 (ip), vehicle: saline with Tween-80 97 % of control | dose: 12.5 mg/kg/injection, schedule: Q04DX002 (ip), vehicle: saline with Tween-80 89 % of control | [20] 95 % of control | dose: 25.0 mg/kg/injection, schedule: Q04DX002 (ip), vehicle: saline with Tween-80 89 % of control

CC(=O)Nc1ncnn1C(C)=O
inactive: [5] 97 % of control | dose: 100.0 mg/kg/injection, schedule: Q01DX009 (ip), vehicle: saline 96 % of control | [7] 98 % of control | dose: 200.0 mg/kg/injection, schedule: Q01DX009 (ip), vehicle: saline 97 % of control | [10] 95 % of control

O=C(O)c1ccccc1-c1ccccc1C(=O)O
inactive: [21] 111 % of control | [22] 97 % of control | dose: 400.0 mg/kg/injection, schedule: Q04DX003 (ip), vehicle: saline with Tween-80 94 % of control

O=c1[nH]c(=O)n(CCCOc2ccccc2)cc1CCc1ccccc1
inactive: dose: 100.0 mg/kg/injection, schedule: Q01DX001 (ip), vehicle: Klucel (hydroxypropylcellulose) (HPC) 91 % of control | dose: 200.0 mg/kg/injection, schedule: Q01DX001 (ip), vehicle: Klucel (hydroxypropylcellulose) (HPC) 94 % of control | dose: 400.0 mg/kg/injection, schedule: Q01DX001 (ip), vehicle: Klucel (hydroxypropylcellulose) (HPC) 87 % of control

Reference: PubChem BioAssay AID248 (DTP/NCI, 2004)
